{"source": "patent US11458189B2", "about": "“Cytoprotective drugs” (BALMES TRANSPLANTATION, priority 2017, dated 2022)", "test_system": "Bovine Brain Microvascular Endothelial Cells (BBMEC)", "test": "Oxygen and glucose deprivation followed by replenishment, cell survival (calcein AM), BBMEC", "assay_type": "cell-based", "method": "Anidulafungin and micafungin were tested on Human Renal Glomerular Endothelial Cells (HRGEC, Innoprot P10665), on Human Renal Proximal Tubular Epithelial Cells (HRPTEpiC, Innoprot P10662), on Human Astrocytes (HA, caltag SC-1800), on Human Cardiac Microvascular Endothelial Cells (HCMEC, Caltag SC-6000), on Human Hepatic Sinusoidal Endothelial Cells (HHSEC, Caltag SC-5000), on Rat Primary Kidney Glomerular Endothelial cells (Cellbiologics, RN-6014G) and on Bovine Brain Microvascular Endothelial Cells (BBMEC, Caltag SC-B100).\nIn a first phase, these isolated, purified and cryopreserved cells are thawed and multiplied according to the supplier's recommendations in T75 or T175 flasks pre-coated with 2 μg of fibronectin/[…] (CORNING) for HRGEC, HCMEC, HHSEC and BBMEC, or 2 μg poly-L-lysin/cm^2 (Caltag SC-0403) for HRPTEpiC and HA, or 15 mL/flask 175 cm^2 gelatin-based solution (Cellbiologics) in the presence of endothelial cell supplemented growth medium ECM (P60104, INNOPROT, Caltag, SC-1001) for HRGEC, HCMEC, HHSEC, RPKGEC or BBMEC, or astrocyte cell supplemented growth medium AM (Caltag SC-1801) for HA or epithelial cell supplemented growth medium EpiCM (P60106, INNOPROT) for HRPTEpiC, at 37° C. under 5% CO2 and saturated humidity until their confluency. They are then harvested by trypsinization according to the method described by the supplier for exactly 5 minutes and then reseeded in new flasks a maximum of three times.\nTo carry out the oxygen and glucose deprivation test followed by their replenishment, the cells will be seeded in 96-well black plates with transparent flat bottom (GREINER). Once a sufficient number of cells has been obtained to allow seeding of 2000 to 15000 cells per well of 96-well plates depending on the cell type, the cells are seeded in these 96-well plates previously coated with an extracellular matrix as listed above for the flasks. The cells are cultured for 5 to 8 days according to the cell type, in the presence of the same growth medium as in the flask as described above except for HRGEC and HRPTEpiC for which DMEM (DUTSCHER) with 1 g/L of supplemented glucose is used, at 37° C. under 5% CO2 and saturated humidity to obtain confluency.\nOn the first day of oxygen and glucose deprivation, (5th, 6th, 7th or 8th day of culture), the culture conditions are drastically changed. The medium of all plates is removed and replaced by DMEM (DUTSCHER) medium without glucose and supplemented only with 1% penicillin-streptomycin (DUTSCHER). Anidulafungin or micafungin dissolved in dimethyl sulfoxide (DMSO) is then added to each well at the desired concentration, resulting in a maximum of 1% DMSO, and the plates are placed under hypoxia at <1% 02 and 5% CO2 at 37° C. for 24 hours of culture. Each compound was tested in a concentration range.\nAfter 24 hours, the growth medium is changed and replaced by a richer medium, DMEM (DUTSCHER) at 1 g/L glucose and 2% FBS (INNOPROT) and 1% penicillin-streptomycin (DUTSCHER). These media will have been pre-equilibrated at 37° C. in advance. The cells are then returned to culture at 37° C. under 20% 02 and 5% CO2 for 22h.\nAfter 22 hours of reoxygenation, the potential protective effect of anidulafungin or micafungin is measured by a cell viability test using calcein AM (CORNING), which is a dye substrate. The calcein AM can easily cross the cell membrane of the viable cells. The AM ester groups mask the part of the molecule that chelates calcium. Once inside the cells, the (non-fluorescent) calcein AM is hydrolyzed to (fluorescent) calcein by endogenous esterases. The resulting calcein molecule binds to calcium inside the cell and remains trapped inside the cell. These molecules emit strong green fluorescence when subjected to […] of a particular wavelength (495 nm). Since dead cells lack esterase activity, only living cells are labelled.\nThis cell viability test is performed in two steps. […]", "key": {"[1]": {"settings": "[Anidulafungin] log μM 0.1760913"}, "[2]": {"settings": "[Anidulafungin] log μM −0.1249387"}, "[3]": {"settings": "[Anidulafungin] log μM −0.30103"}, "[4]": {"settings": "[Anidulafungin] log μM −0.5228788"}}, "note": "Starred links: 1 amine or outer side, 2 acyl side, 3 side chain; linkers in the order of their positions; H or OH if unused. Positions of bridges follow the written chain, without caps; N, C: chain ends. Non-standard residues stand in square brackets, D forms with d. Residues, ends and D or L forms follow the SMILES beside them. ξ: configuration not given here. *: point of attachment. pTerphenylCO(4''-OnC5H11) = CCCCCOc1ccc(-c2ccc(-c3ccc(C(=O)*)cc3)cc2)cc1; Orn(4R-OH,5R-OH) = O=C([C@H](C[C@@H](O)[C@@H](O)N[*:3])N[*:1])[*:2]; hTyr(3S-OH,4S-OH) = N[C@H](C(=O)O)[C@H](O)[C@@H](O)c1ccc(O)cc1; Pro(3S-OH,4S-Me) = C[C@H]1CN[C@H](C(=O)O)[C@H]1O; ξPro(4R-OH) = O=C(O)C1C[C@@H](O)CN1", "data": [{"smiles": "CCCCCOc1ccc(-c2ccc(-c3ccc(C(=O)N[C@H]4C[C@@H](O)[C@@H](O)NC(=O)[C@@H]5[C@@H](O)[C@@H](C)CN5C(=O)[C@H]([C@@H](C)O)NC(=O)[C@H]([C@H](O)[C@@H](O)c5ccc(O)cc5)NC(=O)C5C[C@@H](O)CN5C(=O)[C@H]([C@@H](C)O)NC4=O)cc3)cc2)cc1", "note": "(stereo partly drawn) [Anidulafungin] ({pTerphenylCO(4''-OnC5H11)}-[Orn(4R-OH,5R-OH)]T[ξPro(4R-OH)][hTyr(3S-OH,4S-OH)]T[Pro(3S-OH,4S-Me)]; lactam 1-C)", "values": [{"measurement": "Globalfluo assay 1", "setting": "[Anidulafungin] log μM 0", "value": 941644, "unit": "arbitrary units"}, {"measurement": "Globalfluo assay 2", "setting": "[Anidulafungin] log μM 0", "value": 1153883, "unit": "arbitrary units"}, {"measurement": "Globalfluo assay 3", "setting": "[Anidulafungin] log μM 0", "value": 1374585, "unit": "arbitrary units"}, {"measurement": "Mean globalfluo", "setting": "[Anidulafungin] log μM 0", "value": 1156704, "unit": "arbitrary units"}, {"measurement": "Survival rate (%)", "setting": "[Anidulafungin] log μM 0", "value": 30, "unit": "%"}, {"measurement": "Globalfluo assay 1", "setting": "[1]", "value": 2348228, "unit": "arbitrary units"}, {"measurement": "Globalfluo assay 2", "setting": "[1]", "value": 1617378, "unit": "arbitrary units"}, {"measurement": "Globalfluo assay 3", "setting": "[1]", "value": 1887981, "unit": "arbitrary units"}, {"measurement": "Mean globalfluo", "setting": "[1]", "value": 1951196, "unit": "arbitrary units"}, {"measurement": "Survival rate (%)", "setting": "[1]", "value": 77, "unit": "%"}, {"measurement": "Globalfluo assay 1", "setting": "[Anidulafungin] log μM 0.30103", "value": 2455048, "unit": "arbitrary units"}, {"measurement": "Globalfluo assay 2", "setting": "[Anidulafungin] log μM 0.30103", "value": 2409886, "unit": "arbitrary units"}, {"measurement": "Globalfluo assay 3", "setting": "[Anidulafungin] log μM 0.30103", "value": 4507112, "unit": "arbitrary units"}, {"measurement": "Mean globalfluo", "setting": "[Anidulafungin] log μM 0.30103", "value": 3124015, "unit": "arbitrary units"}, {"measurement": "Survival rate (%)", "setting": "[Anidulafungin] log μM 0.30103", "value": 145, "unit": "%"}, {"measurement": "Globalfluo assay 1", "setting": "[Anidulafungin] log μM 0.60206", "value": 4710709, "unit": "arbitrary units"}, {"measurement": "Globalfluo assay 2", "setting": "[Anidulafungin] log μM 0.60206", "value": 5014887, "unit": "arbitrary units"}, {"measurement": "Globalfluo assay 3", "setting": "[Anidulafungin] log μM 0.60206", "value": 4901610, "unit": "arbitrary units"}, {"measurement": "Mean globalfluo", "setting": "[Anidulafungin] log μM 0.60206", "value": 4875735, "unit": "arbitrary units"}, {"measurement": "Survival rate (%)", "setting": "[Anidulafungin] log μM 0.60206", "value": 248, "unit": "%"}, {"measurement": "Globalfluo assay 1", "setting": "[2]", "value": 1165160, "unit": "arbitrary units"}, {"measurement": "Globalfluo assay 2", "setting": "[2]", "value": 919370, "unit": "arbitrary units"}, {"measurement": "Globalfluo assay 3", "setting": "[2]", "value": 944308, "unit": "arbitrary units"}, {"measurement": "Mean globalfluo", "setting": "[2]", "value": 1009613, "unit": "arbitrary units"}, {"measurement": "Survival rate (%)", "setting": "[2]", "value": 22, "unit": "%"}, {"measurement": "Globalfluo assay 1", "setting": "[3]", "value": 744687, "unit": "arbitrary units"}, {"measurement": "Globalfluo assay 2", "setting": "[3]", "value": 1045135, "unit": "arbitrary units"}, {"measurement": "Globalfluo assay 3", "setting": "[3]", "value": 678965, "unit": "arbitrary units"}, {"measurement": "Mean globalfluo", "setting": "[3]", "value": 822929, "unit": "arbitrary units"}, {"measurement": "Survival rate (%)", "setting": "[3]", "value": 11, "unit": "%"}, {"measurement": "Globalfluo assay 1", "setting": "[4]", "value": 800327, "unit": "arbitrary units"}, {"measurement": "Globalfluo assay 2", "setting": "[4]", "value": 708910, "unit": "arbitrary units"}, {"measurement": "Globalfluo assay 3", "setting": "[4]", "value": 845212, "unit": "arbitrary units"}, {"measurement": "Mean globalfluo", "setting": "[4]", "value": 784816, "unit": "arbitrary units"}, {"measurement": "Survival rate (%)", "setting": "[4]", "value": 8, "unit": "%"}, {"measurement": "Globalfluo assay 1", "setting": "[Anidulafungin] log μM −1", "value": 649447, "unit": "arbitrary units"}, {"measurement": "Globalfluo assay 2", "setting": "[Anidulafungin] log μM −1", "value": 1235676, "unit": "arbitrary units"}, {"measurement": "Globalfluo assay 3", "setting": "[Anidulafungin] log μM −1", "value": 807779, "unit": "arbitrary units"}, {"measurement": "Mean globalfluo", "setting": "[Anidulafungin] log μM −1", "value": 897634, "unit": "arbitrary units"}, {"measurement": "Survival rate (%)", "setting": "[Anidulafungin] log μM −1", "value": 15, "unit": "%"}, {"measurement": "Globalfluo assay 1", "setting": "[Anidulafungin] log μM −2", "value": 664396, "unit": "arbitrary units"}, {"measurement": "Globalfluo assay 2", "setting": "[Anidulafungin] log μM −2", "value": 532817, "unit": "arbitrary units"}, {"measurement": "Globalfluo assay 3", "setting": "[Anidulafungin] log μM −2", "value": 541230, "unit": "arbitrary units"}, {"measurement": "Mean globalfluo", "setting": "[Anidulafungin] log μM −2", "value": 579481, "unit": "arbitrary units"}, {"measurement": "Survival rate (%)", "setting": "[Anidulafungin] log μM −2", "value": "−4", "unit": "%"}]}]}
